Test [1] has as its target T1, Prostaglandin G/H synthase 1 (Ovis aries, UniProt P05979).
T1 sequence (P05979 whole entry): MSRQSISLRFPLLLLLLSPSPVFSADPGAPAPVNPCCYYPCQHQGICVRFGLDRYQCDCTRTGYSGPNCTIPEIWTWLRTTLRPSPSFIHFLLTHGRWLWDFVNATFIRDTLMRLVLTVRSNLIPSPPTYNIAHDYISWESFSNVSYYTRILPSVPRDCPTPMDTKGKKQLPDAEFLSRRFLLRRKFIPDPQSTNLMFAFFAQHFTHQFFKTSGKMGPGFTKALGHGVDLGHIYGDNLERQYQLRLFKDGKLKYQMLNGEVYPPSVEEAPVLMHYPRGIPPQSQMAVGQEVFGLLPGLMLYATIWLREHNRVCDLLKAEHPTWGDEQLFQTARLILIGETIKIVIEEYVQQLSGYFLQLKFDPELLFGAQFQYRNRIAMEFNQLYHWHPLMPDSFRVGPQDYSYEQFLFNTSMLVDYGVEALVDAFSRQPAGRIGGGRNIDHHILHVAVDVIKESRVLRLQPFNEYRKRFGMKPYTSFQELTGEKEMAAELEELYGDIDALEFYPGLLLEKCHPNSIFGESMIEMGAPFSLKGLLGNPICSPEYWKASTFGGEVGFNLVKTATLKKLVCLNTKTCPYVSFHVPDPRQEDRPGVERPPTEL
Kind of test: Inhibition of ovine COX-1 assessed as inhibition of [14C]arachidonic acid to radiolabeled prostaglandins preincubated for 20 mins by TLC-based assay.

Test [2] addresses T2, Prostaglandin G/H synthase 2 (Mus musculus, UniProt Q05769).
T2 sequence (Q05769 whole entry): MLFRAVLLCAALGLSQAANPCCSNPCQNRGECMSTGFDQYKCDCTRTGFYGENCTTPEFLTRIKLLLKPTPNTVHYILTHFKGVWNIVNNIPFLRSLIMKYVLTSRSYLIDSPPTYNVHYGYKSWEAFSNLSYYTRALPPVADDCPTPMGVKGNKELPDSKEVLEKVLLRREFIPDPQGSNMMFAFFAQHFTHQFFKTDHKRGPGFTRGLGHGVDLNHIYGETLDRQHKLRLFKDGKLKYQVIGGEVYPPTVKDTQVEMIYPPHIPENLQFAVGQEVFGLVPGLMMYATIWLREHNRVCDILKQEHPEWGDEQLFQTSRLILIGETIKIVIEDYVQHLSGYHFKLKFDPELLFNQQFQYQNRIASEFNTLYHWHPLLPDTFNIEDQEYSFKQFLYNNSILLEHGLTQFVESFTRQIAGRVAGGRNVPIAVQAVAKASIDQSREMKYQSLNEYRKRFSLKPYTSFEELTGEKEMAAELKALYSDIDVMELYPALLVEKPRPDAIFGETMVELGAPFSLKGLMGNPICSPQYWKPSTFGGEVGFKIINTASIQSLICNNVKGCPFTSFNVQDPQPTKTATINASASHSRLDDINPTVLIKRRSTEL
Kind of test: Inhibition of mouse COX-2 assessed as inhibition of [14C]arachidonic acid to radiolabeled prostaglandins preincubated for 20 mins by TLC-based assay.

Test [3] has as its target T3, Prostaglandin G/H synthase 2 (Mus musculus) (UniProt Q05769).
T3 sequence (whole entry): T2 sequence (Q05769 whole entry)
Kind of test: Inhibition of mouse COX-2 assessed as inhibition of [14C]arachidonic acid to radiolabeled prostaglandins measured as residual activity preincubated for 20 mins by TLC-based assay.

Test [4] has as its target Prostaglandin G/H synthase 1 (Homo sapiens, UniProt P23219). Kind of test: Inhibition of COX-1 in human OVCAR3 cells by cell-based assay. Details: species or system OVCAR-3.
In test [5] the target is T4, Prostaglandin G/H synthase 2 (Homo sapiens, UniProt P35354).
T4 sequence (P35354 whole entry): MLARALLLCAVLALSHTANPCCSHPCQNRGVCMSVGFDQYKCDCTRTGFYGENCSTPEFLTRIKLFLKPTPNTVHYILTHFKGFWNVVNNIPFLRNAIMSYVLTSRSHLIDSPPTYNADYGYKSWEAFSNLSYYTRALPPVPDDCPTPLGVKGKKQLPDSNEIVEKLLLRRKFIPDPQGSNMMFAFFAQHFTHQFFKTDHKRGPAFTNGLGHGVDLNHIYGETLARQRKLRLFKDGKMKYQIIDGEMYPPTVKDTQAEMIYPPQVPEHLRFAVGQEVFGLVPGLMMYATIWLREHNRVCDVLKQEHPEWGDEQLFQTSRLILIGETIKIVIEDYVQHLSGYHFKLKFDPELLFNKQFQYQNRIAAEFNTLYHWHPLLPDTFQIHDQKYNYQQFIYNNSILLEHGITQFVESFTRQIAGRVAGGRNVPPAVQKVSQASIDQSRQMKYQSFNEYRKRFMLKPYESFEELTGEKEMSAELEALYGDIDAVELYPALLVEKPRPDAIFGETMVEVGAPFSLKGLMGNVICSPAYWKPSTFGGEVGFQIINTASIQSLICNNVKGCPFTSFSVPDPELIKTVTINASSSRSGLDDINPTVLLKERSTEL
Kind of test: Inhibition of COX-2 in human 1483 cells by cell-based assay.

In ChEMBL document CHEMBL3351312, “Design of Fluorine-Containing 3,4-Diarylfuran-2(5H)-ones as Selective COX-1 Inhibitors” (ACS Med Chem Lett, 2014) one finds IC50 and Activity data, which are given here for 49 compounds.

The IC50 is the concentration at which inhibition is half-maximal.

The structures appear in SMILES notation.

Sequence of Prostaglandin G/H synthase 1 (Homo sapiens, UniProt P23219) (P23219 whole entry): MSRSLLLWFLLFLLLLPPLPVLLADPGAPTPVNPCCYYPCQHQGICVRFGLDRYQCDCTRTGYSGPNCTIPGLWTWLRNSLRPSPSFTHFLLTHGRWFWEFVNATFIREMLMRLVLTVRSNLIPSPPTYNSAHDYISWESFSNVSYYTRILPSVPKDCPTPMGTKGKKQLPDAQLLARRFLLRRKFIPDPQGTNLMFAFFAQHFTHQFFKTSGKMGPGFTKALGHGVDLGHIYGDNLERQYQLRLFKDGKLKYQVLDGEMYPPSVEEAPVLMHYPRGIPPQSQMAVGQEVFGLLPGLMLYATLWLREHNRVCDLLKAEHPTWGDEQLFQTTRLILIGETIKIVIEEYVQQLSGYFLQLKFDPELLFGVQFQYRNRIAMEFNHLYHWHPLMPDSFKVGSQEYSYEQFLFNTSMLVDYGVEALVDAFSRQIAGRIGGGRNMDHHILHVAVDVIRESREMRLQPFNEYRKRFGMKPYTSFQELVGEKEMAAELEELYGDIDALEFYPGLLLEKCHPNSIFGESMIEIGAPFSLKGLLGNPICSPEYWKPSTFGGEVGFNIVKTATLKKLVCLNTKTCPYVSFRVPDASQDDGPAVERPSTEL

Turning to `N#Cc1ccc(C2=C(c3cccc(F)c3)C(=O)OC2)cc1`, the half-inhibitory concentration (IC50) in test [1] was 0.47 µM; in test [2], above 25 µM.

Consider `COc1ccc(C2=C(c3ccc(F)cc3)C(=O)OC2)cc1`, for which the Activity in test [3] was above 50%. The half-maximal inhibitory concentration (IC50) in test [1] is 0.48 µM; in test [4], 0.36 µM; in test [2], above 25 µM; in test [5] it was above 5 µM.

In the case of `COc1ccc(C2=C(c3ccnc(F)c3)C(=O)OC2)cc1`, the IC50 in test [1] was 4.6 µM; in test [2] it was above 25 µM.

In the case of `Cc1ccc(C2=C(c3ccccc3F)C(=O)OC2)cc1`, the IC50 in test [1] was 1 µM; in test [2], above 25 µM.

For `Cc1ccc(C2=C(c3cccc(F)c3)C(=O)OC2)cc1`, the concentration for half-maximal inhibition (IC50) in test [1] and in test [2] was above 25 µM throughout.

Consider `O=C1OCC(c2ccc(F)cc2)=C1c1ccccc1`, for which the IC50 in test [1] and in test [2] was above 25 µM each time.

For the compound `O=C1OCC(c2ccccc2F)=C1c1ccc(Br)cc1`, the IC50 in test [1] and in test [2] was above 25 µM throughout.

Take `O=C1OCC(c2ccc(F)cc2)=C1c1ccc(O)cc1`: the IC50 in test [1] and in test [2] was above 25 µM in each case.

On to `O=C1OCC(c2cccc(F)c2)=C1c1ccccc1`, for which the IC50 in test [1] and in test [2] was above 25 µM throughout.

For `Cc1ccc(C2=C(c3ccnc(F)c3)C(=O)OC2)cc1`, the concentration for half-maximal inhibition (IC50) in test [1] and in test [2] was above 25 µM each time.

With `COc1ccc(C2=C(c3cccc(Cl)c3F)C(=O)OC2)cc1`, the Activity in test [3] is above 50%. Moreover, the IC50 in test [1] was 0.3 µM; in test [2] it was above 25 µM.

Take `O=C1OCC(c2ccccc2)=C1c1ccccc1`: the 50% inhibitory concentration (IC50) was 5.9 µM in test [1] and above 25 µM in test [2].

Regarding `O=C1OCC(c2ccccc2)=C1c1ccc(F)cc1`, the 50% inhibitory concentration (IC50) in test [1] was 6 µM; in test [4] it was 2.8 µM; in test [2] it was above 25 µM; in test [5], above 5 µM.

Regarding `CN(C)c1ccc(C2=C(c3ccc(F)cc3)COC2=O)cc1`, the concentration for half-maximal inhibition (IC50) in test [1] and in test [2] was above 25 µM in each case.

Regarding `O=C1OCC(c2ccccc2)=C1c1cccc(F)c1`, the half-maximal inhibitory concentration (IC50) in test [1] and in test [2] was above 25 µM throughout.

As to `CCc1ccc(C2=C(c3cccc(F)c3)C(=O)OC2)cc1`, the IC50 was 9.75 µM in test [1] and above 25 µM in test [2].

Consider `O=C1OCC(c2ccc(C(F)(F)F)cc2)=C1c1cccc(F)c1`, for which the half-maximal inhibitory concentration (IC50) in test [1] and in test [2] was above 25 µM throughout.

In the case of `Cc1ccc(C2=C(c3ccc(F)cc3)COC2=O)cc1`, the IC50 in test [1] and in test [2] was above 25 µM throughout.

As for `O=C1OCC(c2ccc(Cl)cc2)=C1c1ccnc(Cl)c1`, the half-maximal inhibitory concentration (IC50) in test [1] and in test [2] was above 25 µM in each case.

`O=C1OCC(c2ccccc2F)=C1c1ccc(Cl)cc1`: the half-inhibitory concentration (IC50) in test [1] and in test [2] was above 25 µM each time.

In the case of `COc1ccc(C2=C(c3ccnc(Cl)c3)C(=O)OC2)cc1`, the 50% inhibitory concentration (IC50) in test [1] is 4.4 µM; in test [2], above 25 µM.

As for `O=C1OCC(c2ccccc2F)=C1c1ccccc1`, the IC50 in test [1] and in test [2] was above 25 µM in each case.

For the compound `O=C1OCC(c2ccccc2)=C1c1ccccc1F`, the IC50 in test [1] and in test [2] was above 25 µM each time.

Consider `COc1ccc(C2=C(c3ccc(Oc4ccc(F)cc4)cc3)C(=O)OC2)cc1`, for which the concentration for half-maximal inhibition (IC50) in test [1] and in test [2] was above 25 µM each time.

As for `O=C1OCC(c2ccc(Cl)cc2)=C1c1ccnc(F)c1`, the IC50 in test [1] was 15.7 µM; in test [2] it was above 25 µM.

On to `O=C1OCC(c2ccccc2F)=C1c1ccc(CO)cc1`, for which the concentration for half-maximal inhibition (IC50) in test [1] and in test [2] was above 25 µM throughout.

For `O=C1OCC(c2ccc(O)cc2)=C1c1cccc(F)c1`, the IC50 is 1.75 µM in test [1] and above 25 µM in test [2].

As to `COc1ccc(C2=C(c3cccc(C(F)(F)F)c3)C(=O)OC2)cc1`, the values for the IC50 in test [1] and in test [2] were 8.8 µM and above 25 µM, respectively.

`COc1ccc(C2=C(c3ccccc3F)C(=O)OC2)cc1`: the half-maximal inhibitory concentration (IC50) in test [1] and in test [2] was above 25 µM in each case.

For the compound `COc1ccc(C2=C(c3ccc(I)cc3)C(=O)OC2)cc1`, the Activity in test [3] is above 50%. Also, the half-inhibitory concentration (IC50) is 0.09 µM in test [1], above 4 µM in test [4], above 25 µM in test [2] and above 5 µM in test [5].

With `CSc1ccc(C2=C(c3ccc(F)cc3)C(=O)OC2)cc1`, the half-maximal inhibitory concentration (IC50) in test [1] and in test [2] was above 25 µM each time.

`COc1ccc(C2=C(c3cccc(F)c3)C(=O)OC2)cc1`: the Activity in test [3] is above 50%. Also, the IC50 in test [1] was 0.36 µM; in test [2] it was above 25 µM.

In the case of `Cc1ccc(C2=C(c3cccc(F)c3)COC2=O)cc1`, the half-inhibitory concentration (IC50) in test [1] and in test [2] was above 25 µM throughout.

As for `Cc1ccc(C2=C(c3ccccc3F)COC2=O)cc1`, the IC50 in test [1] and in test [2] was above 25 µM each time.

Take `O=C1OCC(c2ccc(F)cc2)=C1c1ccc(CO)cc1`: the IC50 in test [1] and in test [2] was above 25 µM each time.

Regarding `COc1ccc(C2=C(c3ccccc3)C(=O)OC2)cc1`, the half-inhibitory concentration (IC50) in test [1] and in test [2] was above 25 µM each time.

For the compound `Cc1ccc(C2=C(c3ccnc(Cl)c3)C(=O)OC2)cc1`, the 50% inhibitory concentration (IC50) in test [1] was 5 µM; in test [2], above 25 µM.

Turning to `Cc1ccc(C2=C(c3ccc(Oc4ccc(F)cc4)cc3)C(=O)OC2)cc1`, the IC50 in test [1] and in test [2] was above 25 µM each time.

As for `COc1ccc(C2=C(c3ccc(C(F)(F)F)cc3)C(=O)OC2)cc1`, the IC50 was 1 µM in test [1] and above 25 µM in test [2].

`N#Cc1ccc(C2=C(c3ccnc(F)c3)C(=O)OC2)cc1`: the half-inhibitory concentration (IC50) in test [1] was 4.4 µM; in test [2], above 25 µM.

Regarding `Cc1ccc(C2=C(c3ccc(F)cc3)C(=O)OC2)cc1`, the IC50 is 0.95 µM in test [1], 0.78 µM in test [4], above 25 µM in test [2] and above 5 µM in test [5].

As for `CS(=O)(=O)c1ccc(C2=C(c3ccccc3)C(=O)OC2)cc1` [ROFECOXIB], the concentration for half-maximal inhibition (IC50) in test [2] worked out at 0.06 µM.

`COc1ccc(C2=C(c3ccc(Br)cc3)C(=O)OC2)cc1`: the 50% inhibitory concentration (IC50) in test [1] came to 0.12 µM; in test [2], 0.45 µM.

For `O=C1OCC(c2ccc(OC(F)(F)F)cc2)=C1c1cccc(F)c1`, the IC50 in test [1] and in test [2] was above 25 µM in each case.

As for `O=C1OCC(c2ccc(F)cc2)=C1c1ccc(Br)cc1`, the IC50 in test [1] and in test [2] was above 25 µM each time.

For the compound `O=C1OCC(c2ccccc2)=C1c1ccc(Oc2ccc(F)cc2)cc1`, the IC50 in test [1] and in test [2] was above 25 µM each time.

For `O=C1OCC(c2ccc(F)cc2)=C1c1ccc(Cl)cc1`, the IC50 in test [1] and in test [2] was above 25 µM in each case.

In the case of `CN(C)c1ccc(C2=C(c3ccccc3F)COC2=O)cc1`, the concentration for half-maximal inhibition (IC50) in test [1] and in test [2] was above 25 µM each time.

Consider `N#Cc1ccc(C2=C(c3ccnc(Cl)c3)C(=O)OC2)cc1`, for which the 50% inhibitory concentration (IC50) was 3 µM in test [1] and above 25 µM in test [2].
